The text below walks through data of US9751837B2, “Kinase inhibitors” (RESPIVERT LIMITED, priority 2014, dated 2017).

One data set deals with Jurkat cells. In words: Cell cytotoxicity assay (r). The format is cell-based, human. The settings on record: 24 hours. The essentials: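 Viability read by flow cytometry as the fraction of propidium iodide-negative cells (7.5 μg/mL PI, 15 min), relative to 1.0% DMSO control. Beforehand, 1×10^5 Jurkat cells in RPMI/10% FBS were treated 24 h at 37° C., 5% CO2 with test compound at final 20, 5 or 1 μg/mL.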

Data set [1] deals with human ether a go-go (hERG) channel (Homo sapiens (Human), UniProt Q12809). In words: hERG inhibition, IonWorks patch clamp electrophysiology. The format is cell-based. The settings on record: IonWorks patch clamp. The method, then:
(§1) Compounds of the invention were tested for inhibition of the human ether a go-go (hERG) channel using IonWorks™ patch clamp electrophysiology at Essen Bioscience (Welwyn Garden City, England).
(The hERG channel carries a current that helps repolarise heart muscle cells.)

Another data set concerns the target hERG (Homo sapiens (Human), UniProt Q12809). The data set is described as above. The settings on record: human, hERG, read-out: % Inhibition at Top Concentration. The format is cell-based. The method, then:
as §1

The nature of data set [2]: Solubility in fasted-state simulated colonic fluid (FaSSCoF) at pH 6.5. The settings on record: 25 °C, pH 6.5, fassgf or other biorelevant, thermodynamic from solid. The format is physicochemical. A digest of the protocol:
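Compounds were suspended at up to 2-10 mg/mL in pH 6.5 Tris/maleate FaSSCoF containing a five-bile-acid mixture, phosphatidylcholine, palmitic acid and BSA. After 24 h equilibration at 25° C the suspension was filtered and the filtrate quantified by HPLC peak area against a standard.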

The target in the next data set is GSK 3α (Homo sapiens (Human), UniProt P49840). In words: GSK 3α enzyme inhibition (Method 2), Z-LYTE FRET. The format is biochemical. To be noted: read-out: IC50 Values for Enzyme Inhibition GSK3α. The essentials:
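Z-LYTE format: the protease cleaves only non-phosphorylated peptide, and the donor/acceptor (coumarin/fluorescein) ratio reports phosphorylation after a 1 hr kinase reaction with peptide (8 μM stock) and ATP (40 μM stock).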

Data set [3] can be described thus: Stability of pharmaceutical formulations (HPLC). To be noted: 1 mg/mL solution; for Purity (%) at week n = 4: 4 weeks. The format is physicochemical. The method, then: The samples were sonicated to achieve clear solutions having the following properties: Osmolality (mOsm/kg): 310 (Na), 314 (HCl); pH: 7.00 (Na), 7.05 (HCl). 0.5 mL of the stock solutions were diluted to 1 mL with 20% DMSO in water & injected for purity analysis by HPLC. The remaining stock solutions were then split into aliquots of 0.5 mL in HPLC vials, and stored at various conditions in duplicate. Samples were stored at 5 and 25° C., before being analysed by HPLC at 1, 2 and 4 weeks. Separate samples were stored at 40° C. and analysed at 4 weeks.

For the next data set, the target named is B-Raf (Homo sapiens (Human), UniProt P15056). In words: KINOMEscan binding of B-Raf to its standard ligand. An excerpt: (§2) These assays may be conducted by DiscoverX (formerly Ambit; San Diego, Calif.).
B-Raf, sequence (P15056 whole entry): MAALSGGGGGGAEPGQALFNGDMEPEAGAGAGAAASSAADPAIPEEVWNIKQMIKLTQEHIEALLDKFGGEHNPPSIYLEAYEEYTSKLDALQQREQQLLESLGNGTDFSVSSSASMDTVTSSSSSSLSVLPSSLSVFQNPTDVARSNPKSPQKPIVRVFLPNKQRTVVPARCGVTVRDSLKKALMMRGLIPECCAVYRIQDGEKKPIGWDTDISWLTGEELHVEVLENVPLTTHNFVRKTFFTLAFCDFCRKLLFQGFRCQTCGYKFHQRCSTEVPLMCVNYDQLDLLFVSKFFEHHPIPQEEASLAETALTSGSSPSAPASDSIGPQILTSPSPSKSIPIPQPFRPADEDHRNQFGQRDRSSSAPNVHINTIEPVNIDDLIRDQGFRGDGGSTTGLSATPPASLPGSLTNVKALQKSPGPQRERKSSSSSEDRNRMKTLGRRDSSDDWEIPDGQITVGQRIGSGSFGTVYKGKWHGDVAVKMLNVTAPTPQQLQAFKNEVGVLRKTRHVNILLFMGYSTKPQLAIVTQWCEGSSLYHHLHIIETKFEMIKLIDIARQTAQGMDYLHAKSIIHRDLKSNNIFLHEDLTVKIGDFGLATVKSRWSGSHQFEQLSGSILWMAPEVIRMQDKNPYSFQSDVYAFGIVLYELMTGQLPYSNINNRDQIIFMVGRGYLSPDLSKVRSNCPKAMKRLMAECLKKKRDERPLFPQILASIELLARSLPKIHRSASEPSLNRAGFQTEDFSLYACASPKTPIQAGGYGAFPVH
Data set [4] can be described thus: Pharmacokinetics and total colon distribution after single oral administration. The format is in vivo, male C57BL/6 mice. To be noted: male, C57BL/6, mouse, mice, oral 5 mg/kg. The method, then: Studies were conducted by Sai Life Sciences (Hinjewadi, Pune, India) to investigate the systemic pharmacokinetics and total colon tissue distribution of compounds of the invention. In particular, pharmacokinetic studies were carried out in male C57BL/6 mice following a single oral administration of the compound.

A further data set deals with non-mutant kinases. In words: KinomeScan Selectivity Scores. The settings on record: for KinomeScan Selectivity Score S(10): (non-mutant kinases with % Ctrl <10)/(non-mutant kinases tested); for KinomeScan Selectivity Score S(1): (non-mutant kinases with % Ctrl <1)/(non-mutant kinases tested). The format is binding.
Source text: as §2

The target in the next data set is B-Raf (V600E) (Homo sapiens (Human), UniProt P15056, V600E). In words: KINOMEscan binding of B-Raf (V600E) to its standard ligand.
B-Raf (V600E), sequence (P15056 whole entry V600E): as the sequence (P15056 whole entry) above, with V600E counted along it
Source text: as §2

[5] abbreviates: pH 6.5 FaSSCoF Solubility (mg/mL) Run 1.
[6] abbreviates: pH 6.5 FaSSCoF Solubility (mg/mL) Run 2.
Where [7] appears, read: blood, measured cpd = dosed cpd (19, 47 as Na salt), read-out: Mean blood concentration.
Setting [8] is: total colon tissue, measured cpd = dosed cpd (1, 19, 47 as Na salt, 44 as NH4+ salt), read-out: total colon level.
[9] abbreviates: total colon, measured cpd = dosed cpd (1, 19, 47 as Na salt, 44 as NH4+ salt), read-out: total colon level.

Each structure is given as a SMILES string. ≈ marks a conversion by molar mass, not a printed value. Structures can show the parent of a compound that is named as a salt. Where two headings read alike, the source gives them in different places.

hERG, sequence (Q12809 whole entry): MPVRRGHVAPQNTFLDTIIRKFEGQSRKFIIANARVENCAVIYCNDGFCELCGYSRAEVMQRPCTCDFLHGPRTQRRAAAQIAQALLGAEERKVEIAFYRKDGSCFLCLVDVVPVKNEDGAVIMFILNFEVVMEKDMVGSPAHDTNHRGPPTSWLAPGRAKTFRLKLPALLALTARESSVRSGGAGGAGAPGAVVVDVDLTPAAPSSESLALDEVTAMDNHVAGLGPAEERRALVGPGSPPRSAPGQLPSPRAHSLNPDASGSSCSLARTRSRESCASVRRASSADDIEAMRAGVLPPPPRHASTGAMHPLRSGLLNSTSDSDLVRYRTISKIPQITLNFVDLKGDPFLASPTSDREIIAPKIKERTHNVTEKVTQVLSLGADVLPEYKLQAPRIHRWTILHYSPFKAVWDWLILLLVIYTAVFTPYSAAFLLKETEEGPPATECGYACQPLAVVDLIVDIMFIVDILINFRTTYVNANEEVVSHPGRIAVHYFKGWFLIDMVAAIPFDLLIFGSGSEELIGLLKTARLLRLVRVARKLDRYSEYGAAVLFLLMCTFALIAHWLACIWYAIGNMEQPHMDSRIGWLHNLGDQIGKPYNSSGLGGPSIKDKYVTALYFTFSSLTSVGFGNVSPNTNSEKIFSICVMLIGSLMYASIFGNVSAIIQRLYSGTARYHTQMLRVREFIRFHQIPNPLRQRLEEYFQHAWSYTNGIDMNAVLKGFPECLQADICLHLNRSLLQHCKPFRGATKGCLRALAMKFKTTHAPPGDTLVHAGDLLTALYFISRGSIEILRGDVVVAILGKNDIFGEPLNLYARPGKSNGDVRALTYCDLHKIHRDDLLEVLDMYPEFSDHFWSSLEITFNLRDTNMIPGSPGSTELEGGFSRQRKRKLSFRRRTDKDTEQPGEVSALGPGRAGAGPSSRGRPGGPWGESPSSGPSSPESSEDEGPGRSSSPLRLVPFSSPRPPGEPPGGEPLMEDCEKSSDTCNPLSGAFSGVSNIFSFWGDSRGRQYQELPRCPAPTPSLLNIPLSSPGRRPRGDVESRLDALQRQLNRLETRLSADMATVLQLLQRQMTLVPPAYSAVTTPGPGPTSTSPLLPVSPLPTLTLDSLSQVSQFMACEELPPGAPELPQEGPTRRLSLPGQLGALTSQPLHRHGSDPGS
human ether a go-go (hERG) channel, sequence (Q12809 whole entry): as above
GSK 3α, sequence (P49840 whole entry): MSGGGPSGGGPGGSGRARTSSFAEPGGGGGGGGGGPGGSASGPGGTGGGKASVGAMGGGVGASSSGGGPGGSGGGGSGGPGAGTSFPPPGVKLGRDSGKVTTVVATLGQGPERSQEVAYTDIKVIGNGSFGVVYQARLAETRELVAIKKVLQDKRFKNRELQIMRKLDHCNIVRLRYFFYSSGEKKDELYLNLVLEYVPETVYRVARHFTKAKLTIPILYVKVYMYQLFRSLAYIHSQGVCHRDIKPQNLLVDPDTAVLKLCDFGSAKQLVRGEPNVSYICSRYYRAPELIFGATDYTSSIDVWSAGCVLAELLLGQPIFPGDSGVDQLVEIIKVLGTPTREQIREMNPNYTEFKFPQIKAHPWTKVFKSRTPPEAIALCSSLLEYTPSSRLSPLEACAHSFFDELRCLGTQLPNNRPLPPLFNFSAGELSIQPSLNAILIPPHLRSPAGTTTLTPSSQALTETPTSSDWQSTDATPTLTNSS

The term IC50 denotes the concentration at which inhibition is half-maximal. On to `COc1cc(Nc2cc(Oc3ccc(NC(=O)Nc4cc(C(C)(C)C)cc(N(CCO)S(C)(=O)=O)c4OC)c4ccccc34)ccn2)ccc1C(=O)NCCN1CC[S+]([O-])CC1` [Example 48, 4-((4-((4-(3-(5-(tert-Butyl)-3-(N-(2-hydroxyethyl)methylsulfonamido)-2-methoxyphenyl)-ureido)naphthalen-1-yl)oxy)pyridin-2-yl)amino)-2-methoxy-N-(2-(1-oxidothiomorpholino)-ethyl)benzamide], for which, in the data set with Jurkat cells (1 μg/mL), the “% Viability at 1 μg/mL” value is 89.0%. Further, the IC50 in data set [1] is greater than 11 µM. In addition, the inhibition at 11 µM on hERG was -6%. Moreover, the solubility thermodynamic at 24 h in [2] (setting [5]) is 0.011 mg/mL (≈ 12.4 µM); in [2] (setting [6]) it was 0.01 mg/mL (≈ 11.3 µM).

In the case of `COc1cc(Nc2cc(Oc3ccc(NC(=O)Nc4cc(C(C)(C)C)cc(NS(C)(=O)=O)c4OC)c4ccccc34)ccn2)ccc1C(=O)NC1CCN(C)CC1` [17(j), 4-[[4-[[4-[[5-tert-butyl-3-(methanesulfonamido)-2-methoxy-phenyl]carbamoylamino]-1-naphthyl]oxy]-2-pyridyl]amino]-2-methoxy-N-(1-methyl-4-piperidyl)benzamide], the values for the concentration for half-maximal inhibition (IC50) (on GSK 3α; in data set [1]) were 2 µM and greater than 3.3 µM, respectively. Also, the inhibition at 3 µM on hERG (3 μM) is 7%.

As to `COc1cc(Nc2cc(Oc3ccc(NC(=O)Nc4cc(C(C)(C)C)cc(NS(C)(=O)=O)c4OC)c4ccccc34)ccn2)ccc1C(=O)O` [Example 1, sodium salt], the “Purity (%) at week n = 4” value in data set [3] (stored at 40° C.) came out at 76.0%.

Molecule `CCOP(C)(=O)c1ccc(Nc2cc(Oc3ccc(NC(=O)Nc4cc(C(C)(C)C)cc(NS(C)(=O)=O)c4OC)c4ccccc34)ccn2)cc1OC` (stereo not drawn) [Example 43, ethyl (4-((4-((4-(3-(5-(tert-butyl)-2-methoxy-3-(methylsulfonamido)phenyl)-ureido)naphthalen-1-yl)oxy)pyridin-2-yl)amino)-2-methoxyphenyl)(methyl)phosphinate] had an IC50 in data set [1] greater than 11 µM. Moreover, the inhibition at 11 µM on hERG was 13%. Further, the solubility thermodynamic at 24 h in data set [2] (FaSSCoF pH 6.5, 25° C., 24 h, Run 1, read-out: pH 6.5 FaSSCoF Solubility (mg/mL) Run 1) is 0.003 mg/mL (≈ 3.94 µM); in data set [2] (FaSSCoF pH 6.5, 25° C., 24 h, Run 2, read-out: pH 6.5 FaSSCoF Solubility (mg/mL) Run 2), 0.003 mg/mL (≈ 3.94 µM).

On to `COc1cc(Nc2cc(Oc3ccc(NC(=O)Nc4cc(C(C)(C)C)cc(NS(C)(=O)=O)c4OC)c4ccccc34)ccn2)cc(OC)c1C(=O)NCCOCCOCCOP(=O)(O)O` [Example 47, 2-(2-(2-(4-((4-((4-(3-(5-(tert-butyl)-2-methoxy-3-(methylsulfonamido)phenyl)ureido)-naphthalen-1-yl)oxy)pyridin-2-yl)amino)-2,6-dimethoxybenzamido)ethoxy)ethoxy)ethyl dihydrogen phosphate], for which, at B-Raf, the “effect on the binding of B-Raf to its standard ligand” value is on record as “did not have any significant effect”. In [4] (setting [7]), the concentration at 0.5 h amounted to 0 µg/mL, the concentration at 1 h came to 0 µg/mL, the concentration at 2 h worked out at 0 µg/mL and the concentration at 4 h came to 0 µg/mL. In [4] (setting [7]), the concentration at 6 h stood at 0 µg/mL, the concentration at 8 h came to 0 µg/mL, the concentration at 12 h came to 0 µg/mL and the concentration at 24 h worked out at 0 µg/mL. Also, in [4] (setting [8]), the concentration at 2 h was 0 ng/g, the concentration at 4 h came to 0 ng/g, the concentration at 6 h amounted to 0 ng/g and the concentration at 8 h turned out to be 0 ng/g. In data set [4] (setting [8]), the concentration at 12 h turned out to be 0 ng/g. Besides, in [4] (setting [9]), the concentration at 0.5 h turned out to be 0 ng/g, the concentration at 1 h was determined as 0 ng/g and the concentration at 24 h is 0 ng/g. In the data set on non-mutant kinases (50 nM), the “KinomeScan Selectivity Score S(10)” value amounted to 0.042. The “KinomeScan Selectivity Score S(1)” value in the data set on non-mutant kinases (500 nM) was 0.074. The “% Viability at 5 μg/mL” value in the data set on Jurkat cells (5 μg/mL) came out at 96.0%. On B-Raf (V600E), the “effect on the binding of B-Raf (V600E) to its standard ligand” value is given as “did not have any significant effect”. The IC50 in data set [1] is greater than 11 µM. In addition, the inhibition at 11 µM on hERG stood at 19%.

In the case of `COc1cc(Nc2cc(Oc3ccc(NC(=O)Nc4cc(C(C)(C)C)cc(NS(C)(=O)=O)c4OC)c4ccccc34)ccn2)ccc1C(=O)O.Cl` [Example 1, hydrochloride salt], the “Purity (%) at week n = 2” value in [3] (stored at 5° C., 2 weeks) is recorded as 98.0%. Also, in [3] (stored at 5° C.), the “Purity (%) at week n = 4” value is given as 98.0%. Also, the “Purity (%) at week n = 1” value in data set [3] (stored at 25° C., 1 week) is reported as 98.0%.

On to `COc1cc(Nc2cc(Oc3ccc(NC(=O)Nc4cc(C(C)(C)C)cc(NS(C)(=O)=O)c4OC)c4ccccc34)ccn2)cc(OC)c1C(=O)NCCOCCOCCO` [Example 36, 4-((4-((4-(3-(5-(tert-butyl)-2-methoxy-3-(methylsulfonamido)phenyl)ureido)naphthalen-1-yl)oxy)pyridin-2-yl)amino)-N-(2-(2-(2-hydroxyethoxy)ethoxy)ethyl)-2,6-dimethoxybenzamide], for which the “effect on the binding of B-Raf to its standard ligand” value at B-Raf is listed as “did not have any significant effect”. Besides, the “KinomeScan Selectivity Score S(1)” value amounted to 0.002 in the data set with non-mutant kinases (50 nM) and 0.079 in the data set on non-mutant kinases (500 nM). Besides, the “KinomeScan Selectivity Score S(10)” value in the data set with non-mutant kinases (50 nM) is listed as 0.050. Further, the “effect on the binding of B-Raf (V600E) to its standard ligand” value at B-Raf (V600E) is given as “did not have any significant effect”. For the same molecule, the IC50 in [1] is greater than 11 µM. For the same molecule, the inhibition at 11 µM on hERG is 24%. Also, the solubility thermodynamic at 24 h in [2] (setting [5]) and in data set [2] (setting [6]) was 0.006 mg/mL (≈ 6.97 µM) each time.
